# Read-outs that look alike come from different tables or passages of the source.
# Experiments:
# [1] = system: humans; experiment: Derivation of acceptable daily exposure (ADE); design: species or system human
# Protocol: Similarly, potential risk for humans from secondary poisoning is assessed by using the acceptable daily exposure (ADE) value for MPA (T. Pfister, unpublished data), which considers toxicological data as well as human experience and covers all routes of uptake, including sensitive subpopulations, over 365 d/annum, with the combined worst‐case uptake through drinking water and fish. No removal of MPA in drinking water production is assumed, but a default intake of 2 L water and 115 g fish/person and day is assumed (European Commission 2011; Murray‐Smith et al. 2012). This combined uptake is then compared with the ADE.
# The ADE was derived based on the available nonclinical and clinical data, with the critical effects identified as 1) immunosuppression and secondary effects thereof and 2) teratogenicity; in addition, the relevance of positive results in genotoxicity tests was assessed (T. Pfister, unpublished data). Based on the NOAEL of 2 mg/kg body weight/d in the 12‐mo oral toxicity study in the rat, an ADE was derived by multiplying this NOAEL by a default body weight of 60 kg for humans and dividing by adjustment factors, namely, 6.2 for extrapolation from rats to humans, 10 for variability between individuals, 1 for study duration of 1 yr for rodents, 5 for severity of systemic toxicity (hematopoiesis, immunotoxicity), and 3 for use of an established NOAEL instead of an NOEL; this derivation results in a first ADE of 0.1 mg MPM/60‐kg person/d. […] The weak clastogenic potential observed at higher doses was considered to be irrelevant at these exposure levels. Because the first ADE was lower than, and therefore also protective of, the second, 0.1 mg MPM/60‐kg person/d was selected as the ADE. Stoichiometrically, this ADE for MPM corresponds to 0.0739 mg MPA/d, which was rounded to 0.075 mg or 75 µg MPA/d. The MTDI for an otter was derived by normalizing the ADE for a 60‐kg human to the otter with a default body mass of 10 kg, resulting in an MTDI of 0.0125 mg or 12.5 µg MPA/10‐kg otter/d.
# [2] = Screening hydrolysis test; assay type: physicochemical; settings: 5 d
# Protocol: (§1) Syntex derived many basic physicochemical properties for both MPM and MPA in the early 1990s. The results for MPA are mostly given in the present study.
# A screening hydolysis test was performed by Syntex with MPA in 0.1 M buffered solutions in triplicate at pH 5, 7 and 9 over 5 days at 50 °C, with HPLC determination of MPA at the start and end of the exposure, 'closely following US Food and Drug Administration 1987 Environmental Assessment Technical Assistance Handbook recommendations' (Young & Licato 1994b).
# [3] = system: daphnid; settings: in vivo
# [4] = system: Cyprinus carpio; design: method as in FASS 2018; settings: OECD 203; ref FASS 2018; cited from earlier work
# [5] = system: Danio rerio; experiment: Fish partial life cycle test, OECD 210 early life stage phase (F1); assay type: in vivo
# Protocol: At the highest tested concentration of 0.1 mg MPA/L nominal concentration (73 µg/L GMMC), only 2 of 75 hatched fish survived until the end of the test, showing that the test concentration range was well chosen. The most sensitive endpoints in this partial life cycle test were survival and growth in terms of length and mass of the young F1 fish; the effects were comparatively small but statistically significant at p = 0.05. In contrast, the F0 generation was impacted to a lesser extent.
# In view of the mammalian mutagenicity and reprotoxicity, a fish partial life-cycle test (PLC; an OECD 229 short-term reproduction test followed by an OECD 210 early-life-stage test) was performed by ECT Oekotoxikologie under GLP with a series of concentrations of MPA in a flow-through setting with the zebrafish Danio rerio (Gilberg & Chambers 2018). Briefly, mature fish (F0 generation) in breeding groups of 14 fish were exposed to four concentrations of the test item (0.0005, 0.0029, 0.0171 and 0.100 mg MPA/L), in fish media as well as to controls without the test item, in two replicates per treatment including controls, for 23 days in a 14-hours light to 10-hours dark photoperiod (OECD 229 phase). During this time period, reproduction parameters (survival of parents, fecundity, e.g., number of eggs, fertility and embryo viability/hatchability) of zebrafish exposed to the test item were assessed in comparison with the controls to determine the lowest observed effect concentration (LOEC) and the NOEC. After 23 days, newly fertilised eggs of the F1 generation were collected and exposed to the corresponding series of test item concentrations, 20 eggs in four replicates each per treatment including controls, until 30 days post-hatch (OECD 210 phase). Lethal and sublethal effects of the test item on eggs, larvae and juvenile fish exposed to the test item were assessed in comparison with controls to determine the LOEC and the NOEC. Samples were taken and analysed by LC–MS/MS (Supplemental Information) and the GMMC for the concentrations determined. Statistical check were made using Probit analyses, Weibull analyses, 2- and 3-parameter normal CDF, Shapiro-Wilk’s test on normal distribution, Levene’s test on variance homogeneity, Fisher's Exact Binomial test, Chi² 2×2 Table Test, Welsh t-test, Step-down Cochran-Armitage test Procedure, Williams Multiple Sequential t-test Procedure and Dunnett`s Multiple t-test Procedure.
# [6] = design: method as in Franquet‐Griell et al. (2017a); settings: ref Franquet‐Griell et al. (2017a); cited from earlier work
# [7] = Screening vapor pressure; assay type: physicochemical
# Source text: as §1
# The vapour pressure of MPA was estimated by Syntex by comparing losses of MPA under a nitrogen stream with losses in capped vials and comparing the results with the same losses of a reference substance of known vapour pressure (Young & Licato 1994a).
smiles,measurement,setting,value
"COc1c(C)c2c(c(O)c1CC=C(C)CCC(=O)O)C(=O)OC2 [MPA, 6‐(1,3‐dihydro‐4‐hydroxy‐6‐methoxy‐7‐methyl‐3‐oxo‐5‐isobenzofuranyl)‐4‐methyl‐4‐hexenoic acid]","ADE, rounded",[1],75 µg MPA/d
same,"ADE, stoichiometric",[1],0.0739 mg MPA/d
same,"ADE, rounded",[1]; MPA/d,0.075 mg
same,Screening hydrolysis,"[2]; pH 5, 50 °C",46.15 % Substance loss
same,Screening hydrolysis,"[2]; pH 7, 50 °C",29.03 % Substance loss
same,Screening hydrolysis,"[2]; pH 9, 50 °C",36.67 % Substance loss
same,48‐h NOEC,[3],440 mg/L
same,acute fish 50% lethal concentration (LC50),[4],> 100 µg/mL
same,hatched fish surviving until the end of the test,[5]; 0.1 mg MPA/L nominal (73 µg/L GMMC),2 of 75
same,"EC10, hatching success",[5]; 34 d phase,> 73 µg GMMC MPA/L
same,"NOEC, hatching success","[5]; 34 d phase, GMMC",73 µg/L
same,lowest EC10,"[5]; Danio rerio, in vivo, 57 d",5.8 µg MPA/L
same,overall NOEC for all endpoints in both F0 and F1 generations,"[5]; Danio rerio, in vivo, 57 d",1.32 µg MPA/L
same,"EC10, posthatch success (survival) and number of healthy fish","[5]; F1, GMMC",5.8 µg MPA/L
same,"NOEC, posthatch success (survival) and number of healthy fish","[5]; F1, GMMC",10.9 µg MPA/L
same,"EC10, length of the surviving F1 fish",[5]; GMMC,31.9 µg MPA/L
same,"EC10, wet weight of the surviving F1 fish",[5]; GMMC,10.6 µg MPA/L
same,"NOEC, length of the surviving F1 fish",[5]; GMMC,1.32 µg/L
same,"NOEC, wet weight of the surviving F1 fish",[5]; GMMC,1.32 µg/L
same,hydrolytic degradation constant,[6],0.0002 min^–1
same,Vapor pressure,[7],< 10^–6 hPa

# — publication PMC6856805, “Environmental Risk Assessment for the Active Pharmaceutical Ingredient Mycophenolic Acid in European Surface Waters” (Environmental Toxicology and Chemistry, 2019)
